Measured values from ChEMBL document CHEMBL1201862, “PubChem BioAssay data set” (2004).
Active and inactive are the calls of the source.

Experiments:
[1] = fluconazole-exposed Candida albicans growth modulators – fluorescence, retest, confirmation (AID 2467); assay type: functional, cell-based
Protein Wnt-3a = Protein Wnt-3a (Mus musculus, UniProt P27467); experiment: antagonism of Wnt3a pathway luciferase reporter – Wnt-LIGHT cells, luminescence, selectivity assay for Gli-SUFU antagonist project, dose response (AID 651570); assay type: functional; details: read-out: IC50_Mean;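 note: Wnt-LIGHT reporter cells stimulated with conditioned medium from Wnt3a-producing cells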
[2] = NIH-3T3 fibroblast cytotoxicity, dose response, cytotoxicity control, cell-based, fluorescence, Alamar Blue, secondary assay (AID 2327); assay type: functional;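 note: NIH-3T3 mouse fibroblasts cultured with fluconazole at 8 µg/mL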
[3] = Trypanosoma cruzi growth suppression in host cells – NIH3T3 host cells, beta-gal luminescence, confirmation (AID 2044); assay type: functional, cell-based;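 note: intracellular parasites grown in NIH/3T3 mouse fibroblasts as host cells; luminescent beta-galactosidase reporter signal from transgenic T. cruzi replicating inside host cells; inhibitors lower the luminescence signal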
[4] = NIH3T3 cell viability loss – ATP luminescence, mouse fibroblasts, counter-screen, dose response (AID 2010); assay type: functional, cell-based;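 note: cells exposed to compound for about 90 hours before reading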
[5] = biological target: T1, High affinity choline transporter 1 (Homo sapiens, UniProt Q9GZV3); experiment: human choline transporter blockers, potency – cell-based, 10-point CRC, membrane potential dye, dose response (AID 588401); assay type: functional;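 note: membrane potential dye fluorescence of choline-evoked depolarization via CHT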
T1 sequence (Q9GZV3 whole entry): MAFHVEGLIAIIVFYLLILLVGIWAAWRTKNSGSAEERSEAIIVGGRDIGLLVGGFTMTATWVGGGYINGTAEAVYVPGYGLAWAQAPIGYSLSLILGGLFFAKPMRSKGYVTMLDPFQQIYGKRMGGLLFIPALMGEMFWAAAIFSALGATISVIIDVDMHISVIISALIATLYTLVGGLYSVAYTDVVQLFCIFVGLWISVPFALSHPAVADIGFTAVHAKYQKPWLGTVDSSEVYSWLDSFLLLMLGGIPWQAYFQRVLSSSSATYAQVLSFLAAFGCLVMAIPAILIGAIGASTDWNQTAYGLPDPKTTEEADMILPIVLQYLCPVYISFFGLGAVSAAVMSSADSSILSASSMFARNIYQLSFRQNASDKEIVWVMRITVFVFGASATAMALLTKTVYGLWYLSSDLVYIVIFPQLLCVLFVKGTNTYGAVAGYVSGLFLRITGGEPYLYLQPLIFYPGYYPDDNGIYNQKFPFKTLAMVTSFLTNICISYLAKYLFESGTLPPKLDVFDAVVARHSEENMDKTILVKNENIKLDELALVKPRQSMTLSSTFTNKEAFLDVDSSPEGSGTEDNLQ

[6] = biological target: T1, High affinity choline transporter 1; experiment: human choline transporter blockers, potency – cell-based, 5-point CRC, membrane potential dye, dose response (AID 504840); assay type: functional
[7] = biological target: ADP-ribosylation factor GTPase-activating protein 1 (Rattus norvegicus, UniProt Q62848); experiment: Fluorescence polarization-based biochemical high throughput dose response screening assay to identify inhibitors of ADP-ribosylation factor GTPase activating protein 1 (ARFGAP1).; assay type: functional
[8] = biological target: T2, Carboxy-terminal domain RNA polymerase II polypeptide A small phosphatase 1 (Homo sapiens, UniProt Q9GZU7); experiment: CTDSP1 inhibitors, concentration-response, biochemical, absorbance readout, ultra-high-throughput screen actives (AID 540297); assay type: functional
T2 sequence (Q9GZU7 whole entry): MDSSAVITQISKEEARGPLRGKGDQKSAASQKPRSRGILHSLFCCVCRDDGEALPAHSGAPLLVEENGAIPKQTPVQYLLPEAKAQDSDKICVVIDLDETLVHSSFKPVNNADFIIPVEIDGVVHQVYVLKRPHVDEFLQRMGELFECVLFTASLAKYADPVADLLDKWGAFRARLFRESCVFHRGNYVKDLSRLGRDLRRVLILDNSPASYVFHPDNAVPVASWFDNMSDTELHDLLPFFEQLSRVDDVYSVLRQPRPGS

[9] = biological target: T3, Histone-lysine N-methyltransferase NSD2 (Homo sapiens, UniProt O96028); assay type: biochemical
T3 sequence (O96028 whole entry): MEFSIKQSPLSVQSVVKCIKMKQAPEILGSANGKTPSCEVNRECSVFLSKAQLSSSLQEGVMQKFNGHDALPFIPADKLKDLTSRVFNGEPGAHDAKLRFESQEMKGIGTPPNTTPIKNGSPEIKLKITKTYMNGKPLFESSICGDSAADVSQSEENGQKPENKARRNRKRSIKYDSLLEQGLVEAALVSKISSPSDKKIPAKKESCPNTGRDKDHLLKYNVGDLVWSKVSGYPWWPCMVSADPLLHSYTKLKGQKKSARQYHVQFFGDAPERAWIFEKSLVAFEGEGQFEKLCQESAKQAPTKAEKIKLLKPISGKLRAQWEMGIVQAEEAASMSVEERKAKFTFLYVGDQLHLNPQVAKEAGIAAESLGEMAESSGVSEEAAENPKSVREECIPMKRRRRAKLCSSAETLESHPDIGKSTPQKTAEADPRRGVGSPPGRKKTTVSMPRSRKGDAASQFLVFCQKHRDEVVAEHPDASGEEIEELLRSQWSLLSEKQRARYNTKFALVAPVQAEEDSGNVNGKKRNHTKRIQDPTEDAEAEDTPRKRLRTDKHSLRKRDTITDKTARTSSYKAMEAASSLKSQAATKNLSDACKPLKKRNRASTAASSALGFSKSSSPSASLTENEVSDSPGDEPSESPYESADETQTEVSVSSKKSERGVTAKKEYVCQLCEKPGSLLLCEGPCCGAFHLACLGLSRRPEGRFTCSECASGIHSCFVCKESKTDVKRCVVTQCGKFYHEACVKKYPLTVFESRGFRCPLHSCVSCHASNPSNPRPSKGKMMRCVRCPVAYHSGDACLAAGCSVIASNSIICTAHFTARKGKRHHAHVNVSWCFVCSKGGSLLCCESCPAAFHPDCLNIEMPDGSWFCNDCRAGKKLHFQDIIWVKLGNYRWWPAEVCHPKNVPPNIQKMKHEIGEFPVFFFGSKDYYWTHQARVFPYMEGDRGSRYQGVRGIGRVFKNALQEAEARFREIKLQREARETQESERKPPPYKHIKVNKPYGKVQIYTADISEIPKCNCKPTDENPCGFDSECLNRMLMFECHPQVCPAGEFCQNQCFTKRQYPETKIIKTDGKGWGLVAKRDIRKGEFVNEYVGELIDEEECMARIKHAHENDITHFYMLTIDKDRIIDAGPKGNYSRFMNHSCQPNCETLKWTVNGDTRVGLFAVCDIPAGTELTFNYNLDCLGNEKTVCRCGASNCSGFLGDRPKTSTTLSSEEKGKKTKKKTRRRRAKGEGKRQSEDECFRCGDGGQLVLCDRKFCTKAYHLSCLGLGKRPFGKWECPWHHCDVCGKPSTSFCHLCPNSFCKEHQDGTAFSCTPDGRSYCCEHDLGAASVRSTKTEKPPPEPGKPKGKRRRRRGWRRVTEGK

[10] = biological target: T4, Zinc finger protein mex-5 (Caenorhabditis elegans, UniProt Q9XUB2); experiment: potency of MEX-5 RNA-binding blockers – biochemical, C. elegans, fluorescence polarization, dose response (AID 1960)
T4 sequence (Q9XUB2 whole entry): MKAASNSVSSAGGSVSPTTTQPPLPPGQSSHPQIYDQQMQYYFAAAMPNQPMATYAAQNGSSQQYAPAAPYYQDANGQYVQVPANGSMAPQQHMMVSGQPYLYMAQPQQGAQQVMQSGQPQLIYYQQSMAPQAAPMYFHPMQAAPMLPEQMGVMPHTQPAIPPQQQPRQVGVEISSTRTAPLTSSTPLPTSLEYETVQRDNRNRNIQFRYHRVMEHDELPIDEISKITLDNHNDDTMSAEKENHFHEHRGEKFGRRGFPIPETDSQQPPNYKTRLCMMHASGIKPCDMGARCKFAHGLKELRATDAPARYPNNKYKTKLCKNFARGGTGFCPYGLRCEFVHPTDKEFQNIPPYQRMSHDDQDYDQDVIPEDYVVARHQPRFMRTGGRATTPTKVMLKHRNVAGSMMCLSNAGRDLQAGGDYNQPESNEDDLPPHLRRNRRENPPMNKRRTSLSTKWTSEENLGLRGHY

[11] = biological target: T5, RNA-binding protein pos-1 (Caenorhabditis elegans, UniProt G5EF15); experiment: disruptors of C. elegans POS-1 RNA interaction – biochemical, fluorescence polarization, dose response (AID 1964);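 note: purified POS-1 fused to maltose binding protein made in E. coli; potency of compounds blocking POS-1 binding to fluorescent RNA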
T5 sequence (G5EF15 whole entry): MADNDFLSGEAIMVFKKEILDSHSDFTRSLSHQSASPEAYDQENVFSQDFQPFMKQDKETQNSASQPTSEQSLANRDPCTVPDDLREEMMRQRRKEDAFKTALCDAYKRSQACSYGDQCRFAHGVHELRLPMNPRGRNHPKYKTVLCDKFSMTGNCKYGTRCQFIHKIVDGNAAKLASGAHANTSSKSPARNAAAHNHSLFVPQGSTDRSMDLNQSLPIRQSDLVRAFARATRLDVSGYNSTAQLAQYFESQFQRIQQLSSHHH

[12] = biological target: DNA (cytosine-5)-methyltransferase 1 (Homo sapiens, UniProt P26358); experiment: inhibition of DNA methylation by DNMT1 – biochemical, fluorescent molecular beacon, confirmation (AID 602386); assay type: functional
[13] = Luminescence Cell-Based Dose Retest to Confirm Inhibitors of Cancer Stem Cells. [Related pubchem assays (depositor defined):AID2717, AID2721]; assay type: functional; details: Homo sapiens
[14] = CCR5-tropic HIV-1 fusion blockers – cell-based, CCR5-tropic Env, dose response (AID 2279); assay type: functional
[15] = viability of uninfected HEp-2 cells – cell-based, HTS, cytotoxicity control for RSV inhibitor project, dose response (AID 2410); assay type: functional; details: human respiratory syncytial virus
[16] = biological target: Induced myeloid leukemia cell differentiation protein Mcl-1 (Homo sapiens, UniProt Q07820); assay type: functional
[17] = HEK-293T viability loss after treatment – luminescence, T-cell screen hits, cytotoxicity control for TCR NF-kB inhibitor project, dose response (AID 489026); assay type: functional, cell-based;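 note: cells exposed to compound about 14 hours before the viability readout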
[18] = biological target: Photoreceptor-specific nuclear receptor (Homo sapiens, UniProt Q9Y5X4); assay type: functional, cell-based;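 note: CHO-S cells with Gal4-NCOR and VP16-NR2E3 two-hybrid luciferase reporter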
[19] = biological target: T6, Sentrin-specific protease 8 (Homo sapiens, UniProt Q96LD8); assay type: functional
T6 sequence (Q96LD8 whole entry): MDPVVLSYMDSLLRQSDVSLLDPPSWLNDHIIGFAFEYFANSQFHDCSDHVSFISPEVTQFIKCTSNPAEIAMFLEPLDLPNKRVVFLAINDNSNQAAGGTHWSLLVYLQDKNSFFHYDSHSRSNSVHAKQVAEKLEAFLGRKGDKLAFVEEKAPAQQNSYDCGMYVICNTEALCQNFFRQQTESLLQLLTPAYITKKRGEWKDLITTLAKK

[20] = biological target: T6, Sentrin-specific protease 8; assay type: functional; remark: listed apart in the source
[21] = activation of miR-122 Renilla sensor silencing – cell-based, Huh7 psiCHECK-miR122, Renilla luciferase, cherry-picked, dose response (AID 651956); assay type: functional;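 note: huh7 hepatoma cells stably carrying a psiCHECK-2 miR-122 sensor plasmid; renilla luciferase signal reporting endogenous miR-122 activity after 48 h compound exposure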
[22] = general mammalian cell viability loss – inhibitor set, cherry-pick, set 2, cytotoxicity control for miR-122 modulator project, dose response (AID 720697); assay type: functional, cell-based
[23] = biological target: Hepatocyte nuclear factor 4-alpha (Homo sapiens, UniProt P41235); assay type: functional, cell-based;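 note: biochemical luminescence-based dose-response counterscreen measuring inhibition of HNF4 dimerization, run alongside a screen for blockers of ABHD5–perilipin-5 interaction; split luciferase complementation of HNF4 fusion proteins in cell lysate measuring dimerization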
[24] = biological target: T7, Mitochondrial peptide methionine sulfoxide reductase (Bos taurus, UniProt P54149); assay type: functional;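 note: absorbance read-out, biochemical high-throughput dose-response screen for MsrA inhibitors, confirmatory; recombinant bovine MsrA coupled to E. coli TrxB with NADPH and selenocystamine; potency is for inhibitors of MsrA activity on DMSO substrate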
T7 sequence (P54149 whole entry): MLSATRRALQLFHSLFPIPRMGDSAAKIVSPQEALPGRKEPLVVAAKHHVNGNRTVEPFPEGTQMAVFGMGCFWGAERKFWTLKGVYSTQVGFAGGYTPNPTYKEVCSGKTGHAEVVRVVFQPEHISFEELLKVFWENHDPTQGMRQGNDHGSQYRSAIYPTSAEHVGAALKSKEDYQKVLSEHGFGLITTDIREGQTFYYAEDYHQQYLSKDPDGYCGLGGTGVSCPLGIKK

DNA (cytosine-5)-methyltransferase 1, sequence (P26358 whole entry): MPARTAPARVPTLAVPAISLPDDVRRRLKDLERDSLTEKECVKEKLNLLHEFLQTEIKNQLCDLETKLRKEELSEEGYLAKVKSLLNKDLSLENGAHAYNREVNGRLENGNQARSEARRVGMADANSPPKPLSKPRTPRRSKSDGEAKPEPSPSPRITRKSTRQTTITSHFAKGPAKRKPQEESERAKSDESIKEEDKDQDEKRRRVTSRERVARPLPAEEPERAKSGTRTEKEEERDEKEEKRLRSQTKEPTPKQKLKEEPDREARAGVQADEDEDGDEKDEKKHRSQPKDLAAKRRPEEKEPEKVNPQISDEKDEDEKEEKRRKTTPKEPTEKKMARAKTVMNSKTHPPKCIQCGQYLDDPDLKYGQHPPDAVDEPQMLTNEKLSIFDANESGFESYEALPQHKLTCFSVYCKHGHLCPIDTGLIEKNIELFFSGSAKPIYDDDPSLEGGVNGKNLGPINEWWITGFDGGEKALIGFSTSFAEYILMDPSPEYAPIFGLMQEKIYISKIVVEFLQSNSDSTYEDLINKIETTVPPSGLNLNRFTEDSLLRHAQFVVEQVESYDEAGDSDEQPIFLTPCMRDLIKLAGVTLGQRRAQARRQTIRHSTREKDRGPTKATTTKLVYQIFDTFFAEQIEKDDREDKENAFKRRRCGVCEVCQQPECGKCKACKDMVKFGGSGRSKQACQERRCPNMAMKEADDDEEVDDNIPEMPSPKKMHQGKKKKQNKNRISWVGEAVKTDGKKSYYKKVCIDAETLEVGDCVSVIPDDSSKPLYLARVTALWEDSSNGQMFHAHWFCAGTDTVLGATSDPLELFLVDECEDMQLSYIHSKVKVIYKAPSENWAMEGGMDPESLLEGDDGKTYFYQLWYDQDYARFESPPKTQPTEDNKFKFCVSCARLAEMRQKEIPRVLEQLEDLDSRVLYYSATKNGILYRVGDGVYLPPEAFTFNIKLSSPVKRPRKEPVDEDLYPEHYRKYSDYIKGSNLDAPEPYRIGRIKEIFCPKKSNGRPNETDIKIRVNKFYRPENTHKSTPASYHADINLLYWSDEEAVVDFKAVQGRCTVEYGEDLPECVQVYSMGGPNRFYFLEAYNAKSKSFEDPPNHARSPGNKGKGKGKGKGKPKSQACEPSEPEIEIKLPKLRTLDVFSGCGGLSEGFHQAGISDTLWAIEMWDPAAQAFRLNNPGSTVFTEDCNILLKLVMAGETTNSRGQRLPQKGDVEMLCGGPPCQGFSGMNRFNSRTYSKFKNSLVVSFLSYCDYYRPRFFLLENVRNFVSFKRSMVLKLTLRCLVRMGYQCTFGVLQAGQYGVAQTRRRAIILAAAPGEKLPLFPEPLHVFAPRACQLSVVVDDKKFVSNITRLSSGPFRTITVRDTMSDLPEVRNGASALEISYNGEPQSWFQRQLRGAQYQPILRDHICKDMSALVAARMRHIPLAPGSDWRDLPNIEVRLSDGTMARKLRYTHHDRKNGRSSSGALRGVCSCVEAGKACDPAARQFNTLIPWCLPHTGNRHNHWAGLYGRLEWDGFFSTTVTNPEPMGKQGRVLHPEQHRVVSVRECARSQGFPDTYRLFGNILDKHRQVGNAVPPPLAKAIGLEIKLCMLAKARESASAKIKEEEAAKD
Protein Wnt-3a, sequence (P27467 whole entry): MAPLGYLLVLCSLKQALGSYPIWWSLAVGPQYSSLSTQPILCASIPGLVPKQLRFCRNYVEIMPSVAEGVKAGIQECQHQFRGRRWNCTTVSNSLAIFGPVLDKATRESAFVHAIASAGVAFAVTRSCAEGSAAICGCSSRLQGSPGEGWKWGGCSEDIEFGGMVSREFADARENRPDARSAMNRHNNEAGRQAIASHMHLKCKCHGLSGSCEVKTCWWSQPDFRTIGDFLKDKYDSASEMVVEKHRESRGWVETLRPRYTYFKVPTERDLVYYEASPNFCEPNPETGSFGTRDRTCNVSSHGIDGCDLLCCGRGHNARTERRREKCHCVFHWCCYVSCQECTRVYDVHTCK
Induced myeloid leukemia cell differentiation protein Mcl-1, sequence (Q07820 whole entry): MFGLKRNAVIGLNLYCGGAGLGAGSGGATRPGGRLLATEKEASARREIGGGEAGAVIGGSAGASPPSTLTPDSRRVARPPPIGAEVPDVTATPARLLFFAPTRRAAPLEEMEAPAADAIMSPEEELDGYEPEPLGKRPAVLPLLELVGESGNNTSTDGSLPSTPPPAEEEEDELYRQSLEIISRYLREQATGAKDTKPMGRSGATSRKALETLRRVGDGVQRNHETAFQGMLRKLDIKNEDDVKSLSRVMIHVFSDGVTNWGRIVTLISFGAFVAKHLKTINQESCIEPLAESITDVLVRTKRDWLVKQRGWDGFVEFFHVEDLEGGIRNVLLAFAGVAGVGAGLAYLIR
Photoreceptor-specific nuclear receptor, sequence (Q9Y5X4 whole entry, the tested form may be a part): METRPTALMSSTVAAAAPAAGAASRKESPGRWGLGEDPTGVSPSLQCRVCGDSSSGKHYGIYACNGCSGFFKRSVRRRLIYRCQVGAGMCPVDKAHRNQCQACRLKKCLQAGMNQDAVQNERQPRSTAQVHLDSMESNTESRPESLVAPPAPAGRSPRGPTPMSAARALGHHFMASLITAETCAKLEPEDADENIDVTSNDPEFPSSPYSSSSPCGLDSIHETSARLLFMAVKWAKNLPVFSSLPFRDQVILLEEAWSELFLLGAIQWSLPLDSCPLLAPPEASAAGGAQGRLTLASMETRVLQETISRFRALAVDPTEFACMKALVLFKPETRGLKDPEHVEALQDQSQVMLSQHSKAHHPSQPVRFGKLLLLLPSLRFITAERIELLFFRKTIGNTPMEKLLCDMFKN
ADP-ribosylation factor GTPase-activating protein 1, sequence (Q62848 whole entry, the tested form may be a part): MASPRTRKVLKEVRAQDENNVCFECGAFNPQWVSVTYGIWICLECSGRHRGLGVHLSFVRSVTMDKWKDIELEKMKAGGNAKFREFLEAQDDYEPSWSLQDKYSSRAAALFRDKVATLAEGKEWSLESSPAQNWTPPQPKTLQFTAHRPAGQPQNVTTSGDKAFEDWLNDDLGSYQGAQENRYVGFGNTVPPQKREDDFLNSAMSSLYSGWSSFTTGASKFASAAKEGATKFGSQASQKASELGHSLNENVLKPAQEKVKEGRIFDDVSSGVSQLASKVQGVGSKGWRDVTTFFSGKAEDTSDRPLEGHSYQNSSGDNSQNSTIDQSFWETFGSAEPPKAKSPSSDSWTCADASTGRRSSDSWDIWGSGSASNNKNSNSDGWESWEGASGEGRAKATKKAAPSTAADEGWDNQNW
Hepatocyte nuclear factor 4-alpha, sequence (P41235 whole entry, the tested form may be a part): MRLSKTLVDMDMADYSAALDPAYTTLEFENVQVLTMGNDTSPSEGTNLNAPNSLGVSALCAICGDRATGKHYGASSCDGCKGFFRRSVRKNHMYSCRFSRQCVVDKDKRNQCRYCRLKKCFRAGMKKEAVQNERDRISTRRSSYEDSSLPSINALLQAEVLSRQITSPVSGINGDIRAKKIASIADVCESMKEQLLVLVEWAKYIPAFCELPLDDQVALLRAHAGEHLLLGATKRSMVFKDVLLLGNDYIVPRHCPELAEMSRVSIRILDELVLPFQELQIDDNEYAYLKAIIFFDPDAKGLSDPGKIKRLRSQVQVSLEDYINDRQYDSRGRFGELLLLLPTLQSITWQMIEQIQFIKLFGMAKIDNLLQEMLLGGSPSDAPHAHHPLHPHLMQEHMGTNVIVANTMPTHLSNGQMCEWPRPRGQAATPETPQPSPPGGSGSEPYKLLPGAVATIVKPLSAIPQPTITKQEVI

In the case of `Cc1c(CCOC(=O)C23CC4CC(CC(C)(C4)C2)C3)sc[n+]1Cc1ccccc1`, the EC50 [1] is reported as 2.08 µM (active), the IC50 (Protein Wnt-3a) is reported as 32 µM (inactive) and the EC50 [2] is reported as > 150 µM (inactive).

With `COc1ccccc1CCNC(=O)c1cc(-c2ccncc2)nc2ccc(Br)cc12` the IC50 (Protein Wnt-3a) was 10.9 µM (active), the EC50 [3] was 0.874 µM (active) and the EC50 [4] was > 60 µM (not active).

For `N=C1CCCN1CC(=O)c1ccc(Br)cc1`, the IC50 [5] was 1.06 µM (active) and the IC50 [6] was 6.07 µM (active).

In the case of `O=C(Nc1ccc(S(=O)(=O)NCC2CCCO2)cc1)c1ccc(Cl)cc1[N+](=O)[O-]` (configuration not stated), the IC50 [5] is reported as 4.47 µM (active) and the IC50 [6] is reported as 7.39 µM (active).

In the case of `COc1ccc(-n2nc3c(N4CCC(C(=O)NCc5ccccc5)CC4)nnc(C)c3c2C)cc1`, the IC50 [7] is reported as 40.6 µM (inactive).

With `CCOc1cccc(N2C(=O)/C(=C/c3ccco3)C(=O)NC2=S)c1` the IC50 [8] was 1.6 µM (active), the AC50 [9] was 1.04 µM (active) and the EC50 [10] was > 300 µM (not active). For the same compound, the EC50 [11] was > 300 µM (not active) and the IC50 [12] was 4.24 µM (active).

For `O=C(O)CCCCCN1C(=O)/C(=C\c2cn(-c3ccccc3)nc2-c2cccs2)SC1=S`, the AC50 [13] was 3.54 µM (active), the IC50 [14] was 37.4 µM (active) and the IC50 [12] was 6.97 µM (active). For the same compound, the CC50 [15] was 12 µM (active) and the IC50 [16] was 2.31 µM (active).

For `COc1cc2nc(CN3CC=C(c4ccccc4)CC3)nc(O)c2cc1OC`, the IC50 [17] was > 80 µM (inactive), the AC50 [13] was 0.609 µM (active) and the IC50 [18] was 0.0655 µM (active).

In the case of `O=C1NC(=O)C(Nc2ccc(Cl)c(Cl)c2)C(=O)N1`, the IC50 [19] is reported as 10.9 µM (active) and the IC50 [20] is reported as 8.82 µM (active).

In the case of `CC1CCCC(NC(=O)c2ccc(C/N=c3\c(N4CCCC4)c(O)c3=O)cc2)C1C` (configuration not stated), the IC50 [5] is reported as 0.501 µM (active) and the IC50 [6] is reported as 0.851 µM (active).

For `Cc1cc(C(=O)Nc2ccc3c(c2)C(=O)N(C)[C@@H]2CC[C@H](CC(=O)N[C@@H](C)c4ccccc4)O[C@H]2CO3)no1`, the AC50 [21] was 57.6 µM (active) and the AC50 [22] was 1.12 µM (active).

With `O=C(Nc1ccc2c(c1)OCCO2)C(c1ccnc2ccccc12)n1c(=O)c(-c2ccco2)nc2ccccc21` (configuration not stated) the IC50 [23] was 18.9 µM (inactive).

In the case of `COc1ccc(/C=N/n2c(S)nnc2C2CCCCC2)c(OC)c1`, the IC50 [24] is reported as 155 µM (inactive).
